Molecular target: T1, INSR (Homo sapiens, UniProt P06213)
T1 construct: purchased Thermo Fisher Scientific (Life Technologies) SelectScreen
Experiment: SelectScreen Z'LYTE
Assay type: biochemical
Protocol: The in vitro kinase selectivity of NU5455 was determined using the SelectScreen Broad Assay Panel (Thermo Fisher Scientific) involving activity and binding assays (Supplemental Table 1). […] Class IA PI3Ks were measured using the p85α subunit.
Kinase [ATP] % Assay Kinase [ATP] % Assay Kinase [ATP] % Assay Kinase [ATP] % Assay
DNA-PK Km app 98.3 Z LATS2 n/a 4.7 L KIT D820E n/a 1.3 L GSK3B (GSK3 beta) Km app -2.5 Z
PIK3C3 (hVPS34) Km app 85.9 A PRKCZ (PKC zeta) Km app 4.7 Z GRK1 n/a 1.3 L BMPR2 n/a -2.5 L
PIK3C2B (PI3K-C2 beta) 10 28.9 A FGFR1 Km app 4.7 Z BRSK2 n/a 1.2 L CDC42 BPB (MRCKB) Km app -2.5 Z
SNF1LK2 Km app 26.6 Z MINK1 Km app 4.6 Z NUAK1 (ARK5) Km app 1.2 A AMPK (A2/B2/G2) n/a -2.6 L
HCK Km app 18.0 Z CSF1R (FMS) Km app 4.3 Z CDK9/cyclin K n/a 1.0 L PRKG1 Km app -2.7 Z
NEK2 Km app 17.8 Z CSNK1G3 (CK1 gamma 3) Km app 4.2 Z NUAK2 n/a 1.0 L KIT T670E n/a -2.8 L
ALK Km app 17.3 Z STK32C (YANK3) n/a 4.2 L CDK2/cyclin O n/a 0.9 L ERBB4 (HER4) Km app -2.8 Z
FGFR3 K650M n/a 16.5 L STK22D (TSSK1) Km app 4.2 Z CAMKK2 (CaMKK beta) n/a 0.9 L PLK4 n/a -2.8 L
SIK3 n/a 16.1 L TAOK3 (JIK) n/a 4.2 L FGFR3 Km app 0.9 Z GRK7 Km app -3.0 Z
LYN A Km app 15.2 Z RPS6KA4 (MSK2) Km app 4.2 Z ULK2 n/a 0.9 L MAPKAPK2 Km app -3.1 Z
BMPR1B (ALK6) n/a 14.5 L PTK2B (FAK2) Km app 4.2 Z KIT D816V n/a 0.9 L FGFR4 Km app -3.1 Z
INSRR (IRR) Km app 14.1 Z CLK2 Km app 4.1 Z CAMK1 (CaMK1) 10 0.8 A CASK n/a -3.1 L
PLK2 Km app 14.1 Z STK24 (MST3) Km app 4.1 Z PTK6 (Brk) Km app 0.7 Z GRK5 Km app -3.2 Z
PRKACA (PKA) Km app 14.0 Z CAMK1D (CaMKI delta) Km app 4.1 Z CAMK2B (CaMKII beta) Km app 0.7 Z EGFR (ErbB1) T790M Km app -3.3 Z
EIF2AK2 (PKR) n/a 13.3 L INSR Km app 4.1 Z ACVR1 (ALK2) n/a 0.7 L PAK4 Km app -3.3 Z
PRKX Km app 12.5 Z IRAK1 Km app 4.0 A ABL1 H396P n/a 0.6 L DAPK3 (ZIPK) Km app -3.4 Z
FGR Km app 12.1 Z SRC N1 Km app 3.9 Z MERTK (cMER) A708S n/a 0.6 L RET M918T n/a -3.5 L
CLK1 Km app 11.7 Z SRPK2 Km app 3.9 Z MAPKAPK5 (PRAK) Km app 0.6 Z PRKCQ (PKC theta) Km app -3.7 Z
MARK3 Km app 11.4 Z RPS6KA6 (RSK4) Km app 3.8 Z AKT1 (PKB alpha) Km app 0.5 Z CAMKK1 (CAMKKA) n/a -3.8 L
PDGFRB (PDGFR beta) Km app 11.0 Z GRK6 Km app 3.7 Z NTRK3 (TRKC) Km app 0.4 Z FLT3 D835Y Km app -3.9 Z
PRKCN (PKD3) Km app 10.7 Z PKN1 (PRK1) Km app 3.6 Z ZAP70 Km app 0.3 Z ROCK2 Km app -4.1 Z
STK16 (PKL12) n/a 10.5 L MAP3K8 (COT) 100 3.5 Z CSNK1A1 (CK1 alpha 1) Km app 0.3 Z CHUK (IKK alpha) Km app -4.2 A
FES (FPS) Km app 10.4 Z FLT4 (VEGFR3) Km app 3.5 Z MYLK (MLCK) n/a 0.2 L AXL Km app -4.2 Z
ABL1 Km app 10.4 Z GRK4 Km app 3.5 Z MKNK2 (MNK2) n/a 0.2 L PIM2 Km app -4.3 Z
MUSK Km app 10.3 Z FRK (PTK5) Km app 3.4 Z AMPK (A1/B1/G3) n/a 0.2 L PAK1 Km app -4.4 Z
MAPK1 (ERK2) Km app 10.1 Z FYN A n/a 3.3 L MAP3K2 (MEKK2) n/a 0.1 L BMPR1A (ALK3) n/a -4.4 L
BRAF 100 9.9 Z CDK1/cyclin A2 n/a 3.3 L CDK8/cyclin C n/a 0.1 L STK4 (MST1) Km app -4.4 Z
IGF1R Km app 9.7 Z KIT V559D T670I n/a 3.1 L MARK2 Km app 0.1 Z PRKCH (PKC eta) Km app -4.6 Z
MAPK14 (p38 alpha) Km app 9.7 Z SPHK2 10 3.1 A ICK n/a 0.0 L SGKL (SGK3) Km app -4.6 Z
LCK Km app 9.6 Z FGFR3 G697C n/a 3.1 L FGFR2 Km app 0.0 Z PI4KB (PI4K beta) Km app -4.7 A
MAPK11 (p38 beta) Km app 9.5 Z RIPK2 n/a 3.1 L AKT2 (PKB beta) Km app 0.0 Z PRKCE (PKC epsilon) Km app -4.9 Z
SRC Km app 9.5 Z PAK6 Km app 3.0 Z EPHB2 Km app -0.1 Z PHKG1 Km app -5.0 Z
CHEK1 (CHK1) Km app 9.3 Z LYN B Km app 3.0 Z TGFBR2 n/a -0.1 L PDGFRA D842V Km app -5.0 Z
CAMK2D (CaMKII delta) Km app 9.3 Z DAPK2 n/a 2.9 L TEK (Tie2) Km app -0.1 Z PRKG2 (PKG2) Km app -5.1 Z
PLK1 Km app 9.2 Z EPHA4 Km app 2.9 Z AURKA (Aurora A) Km app -0.1 Z TYRO3 (RSE) Km app -5.1 Z
RET Y791F Km app 9.2 Z PIK3CG (p110 gamma) Km app 2.9 A KIT D816H n/a -0.2 L TAOK2 (TAO1) Km app -5.1 Z
FLT3 Km app 9.1 Z HIPK1 (Myak) Km app 2.8 Z KIT N822K n/a -0.2 L EPHB4 Km app -5.3 Z
MAPK10 (JNK3) 100 9.0 Z ADRBK2 (GRK3) Km app 2.8 Z PRKACG (PRKAC gamma) n/a -0.2 L AURKC (Aurora C) Km app -5.4 Z
CSNK2A2 (CK2 alpha 2) Km app 8.7 Z STK17B (DRAK2) n/a 2.7 L TEK (TIE2) Y1108F n/a -0.3 L JAK1 Km app -5.7 Z […]

T1 sequence (P06213 28-1382): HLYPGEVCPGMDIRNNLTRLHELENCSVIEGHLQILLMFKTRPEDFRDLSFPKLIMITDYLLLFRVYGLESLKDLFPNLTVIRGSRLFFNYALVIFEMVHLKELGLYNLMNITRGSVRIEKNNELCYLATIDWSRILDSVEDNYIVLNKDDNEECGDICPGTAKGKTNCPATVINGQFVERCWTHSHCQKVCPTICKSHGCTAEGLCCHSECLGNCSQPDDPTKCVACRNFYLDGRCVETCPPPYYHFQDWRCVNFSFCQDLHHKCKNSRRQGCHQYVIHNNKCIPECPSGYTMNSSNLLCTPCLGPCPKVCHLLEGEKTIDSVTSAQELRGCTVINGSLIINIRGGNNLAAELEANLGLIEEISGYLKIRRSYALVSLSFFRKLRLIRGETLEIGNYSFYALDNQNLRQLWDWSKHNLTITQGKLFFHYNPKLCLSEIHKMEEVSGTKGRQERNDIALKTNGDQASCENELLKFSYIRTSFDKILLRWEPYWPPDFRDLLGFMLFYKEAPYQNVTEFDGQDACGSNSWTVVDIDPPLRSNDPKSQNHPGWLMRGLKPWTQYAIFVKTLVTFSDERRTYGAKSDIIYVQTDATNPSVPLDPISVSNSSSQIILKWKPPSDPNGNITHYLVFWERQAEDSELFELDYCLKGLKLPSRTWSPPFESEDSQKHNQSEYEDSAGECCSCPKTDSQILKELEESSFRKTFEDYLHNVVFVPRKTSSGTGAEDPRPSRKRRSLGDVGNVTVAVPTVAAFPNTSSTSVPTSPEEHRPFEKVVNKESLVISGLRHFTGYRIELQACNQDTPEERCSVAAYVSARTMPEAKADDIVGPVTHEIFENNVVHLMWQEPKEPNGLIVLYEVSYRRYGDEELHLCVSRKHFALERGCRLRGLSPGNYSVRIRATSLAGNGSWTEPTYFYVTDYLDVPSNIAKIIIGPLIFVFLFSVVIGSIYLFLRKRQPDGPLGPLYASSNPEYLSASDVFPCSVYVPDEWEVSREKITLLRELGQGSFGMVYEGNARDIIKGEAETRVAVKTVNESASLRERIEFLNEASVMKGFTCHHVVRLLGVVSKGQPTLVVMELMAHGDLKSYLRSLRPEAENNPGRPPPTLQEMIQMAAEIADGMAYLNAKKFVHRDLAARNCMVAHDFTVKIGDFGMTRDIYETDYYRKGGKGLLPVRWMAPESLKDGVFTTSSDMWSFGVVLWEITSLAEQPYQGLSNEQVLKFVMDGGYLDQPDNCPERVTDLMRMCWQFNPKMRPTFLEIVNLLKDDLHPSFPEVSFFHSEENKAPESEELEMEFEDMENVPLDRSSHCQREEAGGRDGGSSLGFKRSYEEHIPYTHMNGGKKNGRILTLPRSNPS

SMILES: CN(C(=O)CN1CCOCC1)c1ccc2sc3c(-c4cccc5c(=O)cc(N6CC7CCC(C6)O7)oc45)cccc3c2c1 [NU5455]
- inhibition at 1 µM: 4.1%
